# Results: ChEMBL document CHEMBL3600354, “Nitric oxide inhibitory activity and antioxidant evaluations of 2-benzoyl-6-benzylidenecyclohexanone analogs, a novel series of curcuminoid and diarylpentanoid derivatives” (Bioorg Med Chem Lett, 2015)
# Experiments:
# RAW264.7 [1] = experiment: Inhibition of nitric oxide production in LPS/IFNgamma-stimulated mouse RAW264.7 cells incubated for 17 hrs by Griess assay; format: functional, cell-based; conditions: RAW264.7, 17 h
# [2] = Antioxidant activity assessed as DPPH radical scavenging activity at 200 uM incubated for 30 mins under dark conditions; format: physicochemical; conditions: 0.5 h
# RAW264.7 [3] = experiment: Inhibition of nitric oxide production in LPS/IFNgamma-stimulated mouse RAW264.7 cells at 50 uM incubated for 17 hrs by Griess assay; format: functional; conditions: RAW264.7, 17 h
# [4] = Antioxidant activity assessed as nitric oxide radical scavenging activity at 500 uM incubated for 60 mins with light exposure at room temperature by Griess assay; format: physicochemical; conditions: 1 h
# RAW264.7 [5] = experiment: Cytotoxicity against LPS/IFNgamma-stimulated mouse RAW264.7 cells by MTT assay; format: cell-based
# [6] = Antioxidant activity incubated at 50 degC for 20 mins by FRAP assay; format: physicochemical
# Liver microsome = experiment: Stability in human liver microsomes assessed as compound degradation at 1 mM pre-incubated at 37 degC for 5 mins followed by NAPDH addition and further incubated at 37 degC for 15 to 120 mins by HPLC method; format: ADME; conditions: 1000 µM
# [7] = Solubility in phosphate buffer at pH 7.4 stirred for 24 hrs at room temperature by HPLC method; format: physicochemical
# [8] = Stability in human liver microsomes assessed as compound remaining at 1 mM pre-incubated at 37 degC for 5 mins followed by NAPDH addition and further incubated at 37 degC for 120 mins by HPLC method; format: ADME; conditions: read-out: Stability
# [9] = Chemical stability in phosphate buffer at pH 7.4 at 20 uM measured over 30 mins at 5 mins intervals at 25 degC by ultraviolet absorption spectroscopy; format: physicochemical; conditions: pH 7.4, 0.5 h
# [10] = Antioxidant activity assessed as DPPH radical scavenging activity incubated for 30 mins under dark conditions; format: physicochemical
Structure (SMILES),IC50 (RAW264.7 [1]) [µM],inhibition (INH) [2] [%],inhibition at 50 µM (RAW264.7 [3]) [%],inhibition (INH) [4] [%],IC50 (RAW264.7 [5]) [µM],Activity [6] [mmolequiv/L],Stability (Liver microsome),solubility at 24 h [7] [µM],"remaining at 2 h, 1000 µM [8] [%]",Stability [9],IC50 [10] [µM]
COc1cccc(/C=C2\CCCC(C(=O)c3ccccc3)=C2O)c1,32.1,21.8,71.6,28.3,> 100,0.018,–,–,–,–,–
O=C(C1=C(O)/C(=C/c2ccc(O)c(O)c2)CCC1)c1ccccc1,–,–,–,–,–,–,Unstable,3.3,> 60,Stable,–
O=C(C1=C(O)/C(=C/c2cccc3ccccc23)CCC1)c1ccccc1,–,17.8,15,14.8,–,0.015,–,–,–,–,–
O=C(C1=C(O)/C(=C/c2ccc3ccccc3c2)CCC1)c1ccccc1,–,11.7,9.3,21,–,0.073,–,–,–,–,–
O=C(C1=C(O)/C(=C/c2cccs2)CCC1)c1ccccc1,–,21.8,8.2,3.3,–,0.177,–,–,–,–,–
Cc1ccc(/C=C2\CCCC(C(=O)c3ccccc3)=C2O)s1,–,18.4,7.6,1.6,–,0.14,–,–,–,–,–
O=C1O[C@H]([C@@H](O)CO)C(O)=C1O [ASCORBIC ACID],–,–,–,2.6,–,–,–,–,–,–,–
Cc1cc(C(C)(C)C)c(O)c(C(C)(C)C)c1 [BUTYLATED HYDROXYTOLUENE],–,–,–,6.5,–,0.798,–,–,–,–,–
COc1cc(/C=C/C(=O)CC(=O)/C=C/c2ccc(O)c(OC)c2)ccc1O [CURCUMIN],14.7,84.2,99.3,88.3,28.8,0.803,Unstable,1.1,< 20,Unstable,23.6
Cc1c(C)c2c(c(C)c1O)CCC(C)(C(=O)O)O2 (configuration not stated) [TROLOX],–,–,–,12.4,–,0.395,–,–,–,–,–
